Measurements from paper PMC12308784, “Organometallic Half-Sandwich Complexes of 1,10-Phenanthroline Derivatives with Improved Solubility, Albumin-Binding, and Nanoformulation Potential Targeting Drug Resistance in Cancer” (Inorganic Chemistry, 2025).
Several values for one entry are separate records, joined by “and”; a condition that tells them apart may be missing. Identical values can stand only once. Like-named read-outs stand apart in the source and are kept apart here.

Columns and labels:
[1] = system: MDA-MB-231, MCF-7 and T-47D breast cancer cell lines; assay: PrestoBlue cytotoxicity, range over the three breast cancer lines; assay type: cell-based; settings: MDA-MB-231, MCF-7, T-47D; 72 h
Protocol: The PHEN-derived ligands (DCP, BP) (together with PHEN for comparison) and the isolated complexes ([RuCym(DCP)-Cl]-Cl, [RhCp*(DCP)-Cl]-Cl, [RuCym(BP)-Cl]-Cl, [RhCp*(BP)-Cl]-Cl) were tested against the estrogen receptor (ER) negative MDA-MB-231, and the ER positive MCF-7 and T-47D breast cancer cell lines (Table , and Figure a for easier comparison).
(§1) MDA-MB-231 breast adenocarcinoma and MCF-7 and T-47D invasive breast carcinomas were purchased from the Developmental Therapeutic Program of the National Cancer Institute (NIH, USA), and they were cultured in RPMI medium (Thermo Fisher). MES–SA and MES–SA/Dx5 uterine sarcoma cell lines were purchased from American Type Culture Collection and were kept in DMEM (Thermo Fisher). MES–SA/B1 was created by the transfection of the human MDR1 gene in MES–SA, and MES–SA mCherry, MES–SA/B1 mOrange, and MES–SA/Dx5 eGFP were engineered to stably express the respective fluorescent proteins, as described previously. Culture media were supplemented with 10% fetal bovine serum, 2 mM L-glutamine, 100 units/mL penicillin, and 100 μg/mL streptomycin (Thermo Fisher). Cells were kept at 37 °C under 5% CO2 and were negative for mycoplasma infection.
(§2) Cytotoxicity of the nonfluorescent cancer cells (MDA-MB-231, MCF-7, T-47D) were assessed with PrestoBlue cell viability reagent (Thermo Fisher). Briefly, 2500 cells/well were seeded on 384-well plates, and then the next day drugs were added. After 72 h incubation, PrestoBlue was added in a 10% final concentration, and after an hour of additional incubation, plates were measured with a PerkinElmer EnSpire plate reader at 555 nm/585 nm excitation/emission wavelengths. Fluorescent cells (MES-SA mCherry, MES-SA/B1 mOrange, MES-SA/Dx5 eGFP) were admixed before seeding on 384-well plates at 800 cells/well density each, thus altogether 2400 cells/well. Drugs were added the following day, and the intensity of the fluorescent proteins were measured after 144 h incubation at the respective fluorescent channels (excitation/emission: eGFP: 485 nm/510 nm; mCherry: 585 nm/610 nm; mOrange: 545 nm/567 nm). pIC50 values were calculated by a custom program written by Judit Sessler in C#. IC50 values and standard deviation were calculated from average pIC50 values from at least 3 independent measurements.

MES-SA/Dx5-eGFP = assay: fluorescent triple coculture cytotoxicity assay; assay type: cell-based, human; settings: 384-well plate; for SR (MES-SA/Dx5): selectivity ratio versus parental MES-SA
Text: (§3) Cytotoxicity of the compounds were further tested also in an in vitro MDR model system, consisting of an MES-SA uterine sarcoma cell line, and its P-gp (ABCB1) overexpressing variants MES-SA/B1, that was genetically engineered to express P-gp, and MES-SA/Dx5, which acquired a P-gp-mediated MDR phenotype due to selection in doxorubicin. , The expression of different fluorescent proteins in each line (mCherry, mOrange, or eGFP) allowed coculturing of these three cell lines, providing more relevant data compared to monocultures, as the interaction between parental and resistant phenotypes is reflected in cytotoxicity.
(§4) Cytotoxicity of nanoformulated [RhCp*(BP)-Cl]-Cl with cross-linked HSA and HTP carriers was tested against the previously introduced triple coculture of fluorescent MES-SA cells with a slight difference. Namely, the media containing the dissolved products were removed from the wells, and fresh media was added prior to the measurement as the presence of cross-linked HSA and HTP formulations interfered with the fluorescence of the cells.
as §1
as §2, with “Fluorescent cells (MES-SA mCherry, MES-SA/B1 mOrange, MES-SA/Dx5 eGFP) were admixed before seeding on 384-well plates at 800 cells/well density each, thus altogether 2400 cells/well.” left out, “measurements. Since the IC50 values were obtained through nonlinear regression fitting of the viability vs. log(concentration) data, the resulting confidence intervals are inherently asymmetric (see pIC50 values and their corresponding SD in Tables S5 and S6).” for “measurements.”

MES-SA/B1-mOrange = assay: fluorescent triple coculture cytotoxicity assay; assay type: cell-based, human; settings: 384-well plate; for SR (MES-SA/B1): selectivity ratio versus parental MES-SA
Text: as §3, §4, §1
as §2, with “Fluorescent cells (MES-SA mCherry, MES-SA/B1 mOrange, MES-SA/Dx5 eGFP) were admixed before seeding on 384-well plates at 800 cells/well density each, thus altogether 2400 cells/well.” left out, “measurements. Since the IC50 values were obtained through nonlinear regression fitting of the viability vs. log(concentration) data, the resulting confidence intervals are inherently asymmetric (see pIC50 values and their corresponding SD in Tables S5 and S6).” for “measurements.”

MES-SA mCherry = assay: fluorescent triple coculture cytotoxicity assay; assay type: cell-based, human; settings: 384-well plate
Text: as §3, §4, §1
as §2, with “Fluorescent cells (MES-SA mCherry, MES-SA/B1 mOrange, MES-SA/Dx5 eGFP) were admixed before seeding on 384-well plates at 800 cells/well density each, thus altogether 2400 cells/well.” left out, “measurements. Since the IC50 values were obtained through nonlinear regression fitting of the viability vs. log(concentration) data, the resulting confidence intervals are inherently asymmetric (see pIC50 values and their corresponding SD in Tables S5 and S6).” for “measurements.”

MCF-7 = assay: PrestoBlue cytotoxicity assay; assay type: cell-based; settings: for pIC50 (mean): Table S5
Protocol: as §1
as §2, with “measurements. Since the IC50 values were obtained through nonlinear regression fitting of the viability vs. log(concentration) data, the resulting confidence intervals are inherently asymmetric (see pIC50 values and their corresponding SD in Tables S5 and S6).” for “measurements.”

T47D = assay: PrestoBlue cytotoxicity assay; assay type: cell-based; settings: for pIC50 (mean): Table S5
Protocol: as §1
as §2, with “measurements. Since the IC50 values were obtained through nonlinear regression fitting of the viability vs. log(concentration) data, the resulting confidence intervals are inherently asymmetric (see pIC50 values and their corresponding SD in Tables S5 and S6).” for “measurements.”

MDA-MB-231 = assay: PrestoBlue cytotoxicity assay; assay type: cell-based; settings: for pIC50 (mean): Table S5
Protocol: as §1
as §2, with “measurements. Since the IC50 values were obtained through nonlinear regression fitting of the viability vs. log(concentration) data, the resulting confidence intervals are inherently asymmetric (see pIC50 values and their corresponding SD in Tables S5 and S6).” for “measurements.”

[2] = Homo sapiens, MES-SA/Dx5-eGFP, coculture, 144 h, read-out: IC50
[3] = Homo sapiens, Mes-Sa/Dx5 eGFP, Table S6, read-out: pIC50 (mean) (converted)
[4] = Homo sapiens, MES-SA/B1-mOrange, coculture, 144 h, read-out: IC50
[5] = Homo sapiens, Mes-Sa/B1 mOrange, Table S6, read-out: pIC50 (mean) (converted)
[6] = Homo sapiens, MES-SA, 144 h, MES-SA mCherry, coculture, 144 h, read-out: IC50
[7] = Homo sapiens, MES-SA, Mes-Sa mCherry, Table S6, read-out: pIC50 (mean) (converted)
[8] = Homo sapiens, MCF7, 72 h, 384-well plate, read-out: IC50
[9] = Homo sapiens, MCF7, Table S5, read-out: pIC50 (mean) (converted)
[10] = Homo sapiens, 72 h, 384-well plate, read-out: IC50
[11] = Homo sapiens, Table S5, read-out: pIC50 (mean) (converted)
[12] = MES-SA mCherry, coculture, 144 h, read-out: IC50
[13] = MES-SA/Dx5-eGFP, coculture, 144 h, read-out: IC50
[14] = MES-SA/B1-mOrange, coculture, 144 h, read-out: IC50
[15] = 72 h, 384-well plate, read-out: IC50

Row | SMILES | IC50 [1] [µM] | IC50 (MES-SA/Dx5-eGFP; [2]) [µM] | IC50 (MES-SA/Dx5-eGFP; [3]) [µM] | SR (MES-SA/Dx5) (MES-SA/Dx5-eGFP) | IC50 (MES-SA/B1-mOrange; [4]) [µM] | IC50 (MES-SA/B1-mOrange; [5]) [µM] | SR (MES-SA/B1) (MES-SA/B1-mOrange) | IC50 (MES-SA mCherry; [6]) [µM] | IC50 (MES-SA mCherry; [7]) [µM] | IC50 (MCF-7; [8]) [µM] | IC50 (MCF-7; [9]) [µM] | IC50 (MES-SA mCherry; [12]) [µM] | IC50 (MES-SA/Dx5-eGFP; [13]) [µM] | IC50 (MES-SA/B1-mOrange; [14]) [µM] | pIC50 (mean) (MES-SA mCherry; Mes-Sa mCherry, Table S6) | IC50 (MCF-7; [15]) [µM] | pIC50 (mean) (MCF-7) | IC50 (T47D; [15]) [µM] | pIC50 (mean) (T47D) | IC50 (MDA-MB-231; [15]) [µM] | also measured
1 | c1ccc(-c2ccnc3c2ccc2c(-c4ccccc4)ccnc23)cc1 [BP, 4,7-diphenyl-1,10-phenanthroline] | 0.59 to 0.76 | 0.01 | 0.00851 | 54.7 | 0.14 | 0.138 | 3.4 | 0.47 | 0.468 | 0.59 | 0.589 | – | – | – | – | – | – | – | – | – | IC50 (T47D; [10]): 0.63 µM; IC50 (T47D; [11]): 0.631 µM; IC50 (MDA-MB-231; [10]): 0.76 µM; IC50 (MDA-MB-231; [11]): 0.759 µM
2 | Clc1ccnc2c1ccc1c(Cl)ccnc12 [DCP, 4,7-dichloro-1,10-phenanthroline] | 3.8 to 5.1 | 0.48 | 0.49 | 6.3 | 4.9 | 4.9 | 0.6 | 3.1 | 3.02 | 3.84 | 3.8 | 3.05 | – | – | – | – | – | – | – | – | IC50 (T47D; [10]): 4.29 µM; IC50 (T47D; [11]): 4.27 µM; IC50 (MDA-MB-231; [10]): 5.09 µM; IC50 (MDA-MB-231; [11]): 5.13 µM
3 | Cc1c(C)c(C)[c-](C)c1C.Clc1ccnc2c1ccc1c(Cl)ccnc12.[Cl-].[Cl-].[Rh+3] [RhCp*DCP, [Rh(III)(η^5-C5Me5)(4,7-dichloro-1,10-phenanthroline)Cl]Cl] | 5.9 to 7.6 | – | – | 5.6 | – | – | 0.7 | – | – | – | – | – | 0.75 | 6.38 | 5.38 | 5.92 | 5.23 | 7.36 | 5.13 | 7.56 | pIC50 (mean) (MES-SA/Dx5-eGFP; Mes-Sa/Dx5 eGFP, Table S6): 6.12; pIC50 (mean) (MES-SA/B1-mOrange; Mes-Sa/B1 mOrange, Table S6): 5.20; IC50 (MES-SA mCherry; MES-SA mCherry, coculture, 144 h, listed as [RhCp*(DCP)Cl]Cl, read-out: IC50): 4.2 µM and 4.22 µM; pIC50 (mean) (MDA-MB-231): 5.12
4 | Cc1ccc(C(C)C)cc1.[Cl-].[Cl-].[Ru+2].c1ccc(-c2ccnc3c2ccc2c(-c4ccccc4)ccnc23)cc1 [RuCymBP, [Ru(II)(η^6-p-cymene)(bathophenanthroline)Cl]Cl] | 1.2 to 1.9 | – | – | 0.01 | – | – | 0.01 | – | – | – | – | 0.53 | 41 | 55 | 6.28 | 1.93 | 5.71 | 1.86 | 5.73 | 1.23 | pIC50 (mean) (MES-SA/Dx5-eGFP; Mes-Sa/Dx5 eGFP, Table S6): 4.39; pIC50 (mean) (MES-SA/B1-mOrange; Mes-Sa/B1 mOrange, Table S6): 4.26; pIC50 (mean) (MDA-MB-231): 5.91
5 | Cc1ccc(C(C)C)cc1.Clc1ccnc2c1ccc1c(Cl)ccnc12.[Cl-].[Cl-].[Ru+2] [RuCymDCP, [Ru(II)(η^6-p-cymene)(4,7-dichloro-1,10-phenanthroline)Cl]Cl] | > 75 | – | – | – | – | – | – | – | – | – | – | 65.6 | > 100 | > 100 | 4.18 | 76.4 | 4.12 | 75 | 4.13 | > 100 | –
